Results reported in patent US6620585B1, “Use of ectoenzymes and secreted enzymes to monitor cellular proliferation” (priority 2000, dated 2003).
≈ marks a conversion by molar mass, not a printed value. Positions of bridges follow the written chain, without caps; N, C: chain ends. Non-standard residues stand in square brackets, D forms with d. Residues, ends and D or L forms follow the SMILES beside them. *: point of attachment. Ileψ(thiazoline)Cys = CC[C@H](C)[C@H](N)C1=N[C@H](C(=O)*)CS1; dOrn = NCCC[C@@H](N)C(=O)O

What follows are compounds tested on bacterial strain engineered for expression of an antisense complementary to a proliferation-required 50S ribosomal protein (rplL and rplJ) (assay: not given). Conditions: antisense to rplL and rplJ induced, 400 μM IPTG; growth by light scattering at 595 nm, mid-exponential time point.
Assay type: cell-based, E. coli
Method: The effectiveness of the above assays was validated using proliferation-required genes from E. coli which were identified using procedures similar to those described above. Antibiotics of various chemical classes and modes of action were purchased from Sigma Chemicals (St. Louis, Mo.). Stock solutions were prepared by dissolving each antibiotic in an appropriate aqueous solution based on information provided by the manufacturer. The final working solution of each antibiotic contained no more than 0.2% (w/v) of any organic solvent. To determine their potency against a bacterial strain engineered for expression of an antisense complementary to a proliferation-required 50S ribosomal protein, each antibiotic was serially diluted two or three fold in growth medium supplemented with the appropriate antibiotic for maintenance of the anti-sense construct. At least ten dilutions were prepared for each antibiotic. 25 μL aliquots of each dilution were transferred to discrete wells of a 384-well microplate (the assay plate) using a multi-channel pipette. Quadruplicate wells were used for each dilution of an antibiotic under each treatment condition (plus and minus inducer). Each assay plate contained twenty wells for cell growth controls (growth media replacing antibiotic), ten wells for each treatment (plus and minus inducer, in this example IPTG). Assay plates were usually divided into the two treatments: half the plate containing induced cells and an appropriate concentrations of inducer (in this example IPTG) to maintain the state of induction, the other half containing non-induced cells in the absence of IPTG.
Cells for the assay were prepared as follows. Bacterial cells containing a construct, from which expression of antisense nucleic acid complementary to rplL and rplJ, which encode proliferation-required 50S ribosomal subunit proteins, is inducible in the presence of IPTG, were grown into exponential growth (OD600 0.2 to 0.3) and then diluted 1:100 into fresh media containing either 400 μM or 0 μM inducer (IPTG). These cultures were incubated at 37° C. for 2.5 hr. After a 2.5 hr incubation, induced and non-induced cells were respectively diluted into an assay medium at a final OD600 value of 0.0004. The medium contained an appropriate concentration of the antibiotic for the maintenance of the antisense construct. In addition, the medium used to dilute induced cells was supplemented with 800 μM IPTG so that addition to the assay plate would result in a final IPTG concentration of 400 μM. Induced and non-induced cell suspensions were dispensed (25 μl/well) into the appropriate wells of the assay plate as discussed previously. The plate was then loaded into a plate reader, incubated at constant temperature, and cell growth was monitored in each well by the measurement of light scattering at 595 nm. Growth was monitored every 5 minutes until the cell culture attained a stationary growth phase. For each concentration of antibiotic, a percentage inhibition of growth was calculated at the time point corresponding to mid-exponential growth for the associated control wells (no antibiotic, plus or minus IPTG). For each antibiotic and condition (plus or minus IPTG), a plot of percent inhibition versus log of antibiotic concentration was generated and the IC50 determined.

| Compound | IC50 (+IPTG) |
| --- | --- |
| CN(C)c1ccc(O)c2c1C[C@H]1C[C@H]3[C@H](N(C)C)C(O)=C(C(N)=O)C(=O)[C@@]3(O)C(O)=C1C2=O [Minocycline] | 0.003897 µg/mL (≈ 0.00852 µM) |
| CN[C@@H]1[C@H](O)[C@H](NC)[C@H]2O[C@@]3(O)C(=O)C[C@@H](C)O[C@H]3O[C@@H]2[C@H]1O [Spectinomycin] | <0.156 µg/mL |

Same assay, conditions: significant decrease in IC50 in the presence of inducer (IPTG)

| Compound | Sensitivity Increased ? |
| --- | --- |
| [H]/N=C(/N)N[C@H]1[C@H](O)[C@@H](O)[C@H](O[C@@H]2O[C@@H](C)[C@](O)(C=O)[C@H]2O[C@@H]2O[C@@H](CO)[C@H](O)[C@@H](O)[C@@H]2NC)[C@@H](N/C(N)=N\[H])[C@@H]1O [Streptomycin] | Yes |
| CC[C@H](C)[C@H](N)C1=N[C@H](C(=O)N[C@@H](CC(C)C)C(=O)N[C@H](CCC(=O)O)C(=O)N[C@H](C(=O)N[C@H]2CCCCNC(=O)[C@H](CC(N)=O)NC(=O)[C@@H](CC(=O)O)NC(=O)[C@H](Cc3cnc[nH]3)NC(=O)[C@@H](Cc3ccccc3)NC(=O)[C@H]([C@@H](C)CC)NC(=O)[C@@H](CCCN)NC2=O)[C@@H](C)CC)CS1 [Bacitracin] ({Ileψ(thiazoline)Cys}-L[dE]IK[dOrn]I[dF]H[dD]N; lactam 4-C) | No |
| Gentamicin | Yes |
| CN[C@@H]1[C@H](O)[C@H](NC)[C@H]2O[C@@]3(O)C(=O)C[C@@H](C)O[C@H]3O[C@@H]2[C@H]1O [Spectinomycin] | Yes |
| CC(=O)O[C@H]1C[C@@]2(C)[C@@H](C[C@@H](O)[C@H]3[C@@]4(C)CC[C@@H](O)[C@@H](C)[C@@H]4CC[C@@]32C)/C1=C(\CCC=C(C)C)C(=O)O [Fusidic acid] | Yes |
| NC[C@H]1O[C@H](O[C@H]2[C@H](O)[C@@H](O[C@H]3O[C@H](CO)[C@@H](O)[C@H](N)[C@H]3O)[C@H](N)C[C@@H]2N)[C@H](N)C[C@@H]1O [Tobramycin] | Yes |
| CO/N=C(\C(=O)N[C@@H]1C(=O)N2C(C(=O)O)=C(COC(C)=O)CS[C@H]12)c1csc(N)n1 [Cefotaxime] | No |
| CCn1cc(C(=O)O)c(=O)c2ccc(C)nc21 [Nalidixic acid] | No |
| O=C(N[C@H](CO)[C@H](O)c1ccc([N+](=O)[O-])cc1)C(Cl)Cl [Chloramphenicol] | Yes |
| CO[C@@]1(NC(=O)Cc2cccs2)C(=O)N2C(C(=O)O)=C(COC(N)=O)CS[C@@H]21 [Cefoxitin] | No |
| CCC[C@@H]1C[C@@H](C(=O)N[C@@H]([C@H]2O[C@H](SC)[C@H](O)[C@@H](O)[C@H]2O)[C@@H](C)O)N(C)C1 [Lincomycin] | Yes |
| CN[C@H](CC(C)C)C(=O)N[C@H]1C(=O)N[C@@H](CC(N)=O)C(=O)N[C@H]2C(=O)N[C@H]3C(=O)N[C@H](C(=O)N[C@H](C(=O)O)c4cc(O)cc(O)c4-c4cc3ccc4O)[C@H](O)c3ccc(c(Cl)c3)Oc3cc2cc(c3O[C@@H]2O[C@H](CO)[C@@H](O)[C@H](O)[C@H]2O[C@H]2C[C@](C)(N)[C@H](O)[C@H](C)O2)Oc2ccc(cc2Cl)[C@H]1O [Vancomycin] | No |
| CC[C@H]1OC(=O)[C@H](C)[C@@H](O[C@H]2C[C@@](C)(OC)[C@@H](O)[C@H](C)O2)[C@H](C)[C@@H](O[C@@H]2O[C@H](C)C[C@H](N(C)C)[C@H]2O)[C@](C)(O)C[C@@H](C)C(=O)[C@H](C)[C@@H](O)[C@]1(C)O [Erythromycin] | Yes |

These compounds were tested on E. coli strain DJKGC4 (assay: Chitobiase-based cell growth assay, gentamicin dose response in 1536-well plate). Conditions: 5 hours, 100 μM MNAG.
Method: FIG. 6 is an E. coli dose response curve to gentamicin. E. coli strain DJKGC4 was inubated with various concentrations of gentamicin for 5 hours in a 1536 well plate in the presence of 100 μM 4-methylumbelliferyl N-acetyl β-D-glucosaminide (MNAG). After removal of background fluorescence, the inhibition of cell growth produced by each gentamicin concentration was calculated by comparison to the fluorescence generated by control cells growing in the absence of gentamicin.
To follow cell growth using the fluorogenic substrate MNAG, E. coli cells of strain DJKGC4 containing a chromosomally integrated, constitutively expressed chitobiase gene were added to an appropriate growth medium containing 100 μM MNAG, and the resulting cell suspension was dispensed into the wells of 1536-well microplates as described above. Following addition of test compounds and controls, plates were incubated at 37° C. and cell growth was followed by measurement of the fluorescent product of chitobiase activity, 4-methylumbelliferone using an Acquest reader (LJL Biosystems, excitation wavelength 360 nm, emission wavelength 425 nm).
An E. coli dose response to gentamicin was obtained by incubating E. coli strain DJKGC4 with various concentrations of gentamicin for 5 hours in a 1536-well plate in the presence of 100 μM MNAG. […]

| Compound | IC50 by the chitobiase-based assay compared with 384 well plate format, turbidity-based assays |
| --- | --- |
| Gentamicin | indistinguishable |
